Data reported in patent US10683553B2, “Method for determining sensitivity to simultaneous inhibitor against PARP and Tankyrase” (THE ASAN FOUNDATION, priority 2015, dated 2020).

Assays:
Experiment in all cases: Trypan blue staining apoptosis assay
Assay type in all cases: cell-based
[1] = test system: SW620 human colon cancer cell line; conditions: SW620 (p53 MT/LIG4 WT); 25 μM and 50 μM, 48 hours
Excerpt: (§1) In order to analyze the degree of apoptosis of Compound A, which is a novel PARP/Tankyrase simultaneous inhibitor according to a p53 genotype and LIG4 genotype, the present inventors treated a novel PARP/Tankyrase simultaneous inhibitor, Compound A, and a competitive drug PARP inhibitor, olaparib, in RKO, LoVo human colon cancer cell line in which the p53 gene is a normal type and the LIG4 gene is a mutant type and an SW620 human colon cancer cell line in which the p53 gene is a mutant type and the LIG4 gene is a normal type. The number of cells was measured by trypan blue staining assay to confirm the degree of apoptosis. The conditions and methods of the experiment were as follows: RKO, LoVo human colon cancer cell line in which the p53 gene is a normal type and the LIG4 gene is a mutant type and the SW620 human colon cancer cell line in which the p53 gene is a mutant type and the LIG4 gene is a normal type were cultured in RPMI1640 (10% FBS, 1% penicillin/streptomycin) and cultured in a 60 mm plate at 1×10^5 per well for 24 hours at 37° C. Compound A, which is a novel PARP/Tankyrase simultaneous inhibitor, and olaparib, which is a competitive drug PARP inhibitor, were treated with each of 25 μM and 50 μM and were cultured for 48 hours. The number of cells was measured by trypan blue staining assay to confirm the degree of apoptosis.
(§2) In order to analyze the degree of apoptosis of Compounds A and B, which are novel PARP/Tankyrase simultaneous inhibitors, in a cell line RKO in which the p53 genotype is a normal type and an LIG4 genotype is a mutant type, a cell line SW620 in which the p53 genotype is a mutant type and an LIG4 genotype is a normal type, a cell line HCT8 in which the p53 genotype and an LIG4 genotype are normal, and a cell line KM12C in which the p53 genotype and an LIG4 genotype are mutant, the human colon cancer cell lines of RKO, HCT, SW620 and KM12C with different p53 genotype and LIG4 genotype were cultured in RPMI1640 (10% FBS, 1% penicillin/streptomycin) and cultured in a 60 mm plate at 1×10^5 per well for 24 hours at 37° C. Compounds A and B, which are novel PARP/Tankyrase simultaneous inhibitors, and olaparib, which is a competitive drug PARP inhibitor, and NVP-TNKS656, which is a Tankyrase inhibitor, were treated with each of 25 μM and 50 μM. After 48 hours of culturing, the number of cells was measured by trypan blue staining assay to confirm the degree of apoptosis.

[2] = test system: RKO human colon cancer cell line; conditions: RKO (p53 WT/LIG4 MT); 25 μM and 50 μM, 48 hours
Excerpt: as §1
In order to analyze the degree of apoptosis of Compound A, which is a novel PARP/Tankyrase simultaneous inhibitor, according to the p53 genotype and an LIG4 genotype, the present inventors treated Compounds A and B, which are novel PARP/Tankyrase simultaneous inhibitors, in the RKO and LoVo human colon cancer cell lines in which the p53 gene is a normal type and an LIG4 gene is a mutant type. Then, the number of cells was measured by trypan blue staining assay to confirm the degree of apoptosis. The RKO and LoVo human colon cancer cell lines were cultured under the same conditions as in Example 5. Compounds A and B, which are novel PARP/Tankyrase simultaneous inhibitors, were treated with 25 μM and 50 μM, respectively, for 48 hours. After 48 hours of culturing, the number of cells was measured by trypan blue staining assay to confirm the degree of apoptosis. […]

[3] = test system: KM12C human colon cancer cell line; conditions: KM12C (p53 MT/LIG4 MT); 25 μM and 50 μM, 48 hours
Excerpt: as §2

[4] = test system: HCT8 human colon cancer cell line; conditions: HCT8 (p53 WT/LIG4 WT); 25 μM and 50 μM, 48 hours
Excerpt: as §2

## COc1ccc(C(=O)C2CCN(CC(=O)N(Cc3nc4c(c(=O)[nH]3)COCC4)CC3CC3)CC2)cc1 [NVP-TNKS656, reference compound]
[1]
  degree of apoptosis (trypan blue cell count): No apoptosis occurred
[2]
  degree of apoptosis (trypan blue cell count): no change in apoptosis
[3]
  degree of apoptosis (trypan blue cell count): No apoptosis occurred
[4]
  degree of apoptosis (trypan blue cell count): No apoptosis occurred
